“Also recorded” adds a separate entry of the source. No end group written: not given here.
Legend:
[1] = system: unidentified protease from Lactobacillus acidophilus; assay: Peptide-HRP Affigel bead detection of Lactobacillus protease; type: biochemical; conditions: FIG. 12
Protocol: The two putative peptides were synthesized, coupled to Affigel beads (Bio-Rad, Hercules Calif.), and then labeled with horseradish peroxidase in the following manner:
Peptides were coupled to Affigel beads as described by the manufacturer. Similar results were obtained using small latex beads with carboxylic acid groups. Briefly, 1 mg of peptide was incubated with 1 ml of affigel in conjugation buffer (phosphate buffered saline) for 1-2 hours at room temperature. For the small latex beads functionalized with carboxylic acids, the peptides/proteins are coupled with EDC (1-ethyl-3-[3 dimethylaminopropyl] carbodiimide hydrochloride). The beads are either used immediately or conjugated further with HRP-maleimide or stored at 4° C. under a cushion of 2% trehalose or 2% sucrose.
HRP is conjugated to sulfo-SMCC though a reactive primary amine group. The reaction is performed for 1 hour in the presence of 50 mM sodium phosphate buffer (pH 7.4). The functionalized HRP is removed from the unbound sulfo-SMCC by gel filtration using P6 Biogel P polyacrylamide beads, Biorad (Hercules, Calif.) or Sephadex G50 beads (Amersham Biosciences, Piscataway, N.J.). The HRP-maleimide elutes in the void volume, whereas the free sulfo-SMCC elutes very slowly from the column. The HRP binds hemin, and, thus, has a brown color that can be used to quickly identify the void volume containing the HRP-maleimide. […]

E. coli = assay: HRP release from Affigel-GV2-HRP beads, ABTS/H2O2 read at 405 nm; type: biochemical, Escherichia coli; conditions: 5 minutes at ambient temperature
Protocol: (§1) Various bacteria were cultured overnight at 37° C. in NYC III media with 5% CO2. A 10% slurry of Affigel-GV2-HRP in PBS was prepared, and 20 μl was added to six wells of a 96-well filter plate (Millipore Multi-screen HTS). Aliquots of the bacteria, including Gardnerella vaginalis, Pseudomonas aeruginosa, E. coli, Streptococcus pyogenes, Enterococcus faecalis, and Staphylococcus aureus, were added (100 μl) to the beads, and the plate was allowed to sit for 5 minutes at ambient temperature. The supernatants were centrifuged into a low-binding assay plate (Coming 3641), and assays for HRP were then run. 2,2′-azino-bis(3-ethylbenzthiazoline-6-sulfonic acid) (ABTS, US Biological) is a commonly used substrate for HRP, giving a water-soluble blue-green color in the presence of HRP and hydrogen peroxide. The formation of the bluegreen color can be followed at 405 nm, with higher slopes indicating the presence of higher amounts of HRP.

[2] = system: Staphylococcus aureus, Streptococcus pyogenes, Escherichia coli (E. coli), Pseudomonas aeruginosa, and Enterococcus faecalis; assay: HRP release from GV2-HRP beads, specificity against other common pathogens; type: biochemical; conditions: five minutes, FIG. 11
Protocol: as §1, with “The formation of the bluegreen color can be followed at 405 nm, with higher slopes indicating the presence of higher amounts of HRP.” left out
(§2) FIG. 11 illustrates the specificity of the GV2 (PFINETYAKFC) (SEQ ID NO: 1) peptide for Gardnerella vaginalis over the course of five minutes when incubated with Gardnerella vaginalis, Staphylococcus aureus, Streptococcus pyogenes, Escherichia coli (E. coli), Pseudomonas aeruginosa, and Enterococcus faecalis. The extracts were filtered through microtiter plate filters and the HRP release was measured at 405 nm with ABTS substrate in the presence of hydrogen peroxide (H202).

Gardnerella vaginalis = assay: HRP release from Affigel-GV2-HRP beads, ABTS/H2O2 read at 405 nm; type: biochemical; conditions: peptide conjugated to HRP on Affigel beads, 5 minutes
Protocol: as §1, with “2,2′-azino-bis(3-ethylbenzthiazoline-6-sulfonic acid) (ABTS, US Biological) is a commonly used substrate for HRP, giving a water-soluble blue-green color in the presence of HRP and hydrogen peroxide. The formation of the bluegreen color can be followed at 405 nm, with higher slopes indicating the presence of higher amounts of HRP.” left out
Gardnerella vaginalis was detected with the peptide PFINETYAKFC (SEQ ID NO: 1) which was conjugated to HRP. […] Alternatively, the color change can be measured on a plate reader at 405 nm.
as §2

C. albicans [3] = assay: Identification of peptide targets for C. albicans; type: biochemical, Candida albicans
Protocol: Clones of green fluorescent protein (GFP) tagged conjugates were used to identify targets in a high throughput screen. Each clone contained a plasmid harboring a gene that contains a polyhistidine tag (6 his), 30 random nucleotides (corresponding to 10 random amino acids), and green fluorescent protein (GFP). On the day before a screen, 864 glowing clones are grown up overnight at 37° C. in deep well microtiter plates (1 ml/well). In the morning, the cultures can be induced with 1 mM IPTG for 1 hour, the cells can be centrifuged for five minutes, and then the media can be decanted. Lysozyme (2 mg/ml) can be added and the cells can be flash frozen 3 times. The samples can be treated with 100 ul/well of DNAse I at 37° C. for 30 minutes to reduce the viscosity by digesting the DNA. An aliquot of the sample can then be transferred to a microtiter filter plate containing 10 μl of nickel-NTA resin. The pipeting of the reagents (IPTG, lysozyme, DNAse I, and beads) can be performed with a Tecan Genesis RSP 100 Robot with Gemini version 4.0 software.
The plates can be filtered by centrifugation three times with PBS to remove unbound material and then the GFP-peptide-bound bead can be incubated with microbial extract for 20 min at 37° C. The sample can be filtered and the flow through fluorescence can be compared with the background from the prior wash. If the microbe has a protease that finds the ideal target, then the release of GFP fluorescence from the bead can be over 100 times greater than the background.
(SEQ ID NO: 8), the sequence QKTTIKKLKH (H2) (SEQ ID NO: 9), the sequence KPKAFLKVGN (R8) (SEQ ID NO: 6), the sequence TPIQIHTILH (SEQ ID NO: 10), the sequence […] (SEQ ID NO: 11), the sequence […] (SEQ ID NO: 12), and the sequence […] (SEQ ID NO: 13).

C. albicans [4] = assay: G11 peptide detection of C. albicans grown in artificial vaginal fluid; type: biochemical, Candida albicans; conditions: FIG. 23

ITTTSSKHEHC (Peptide Substrate of Lactobacillus acidophilus) [peptide substrate detecting a protease from Lactobacillus]
detection of protease from Lactobacillus [1]: detects an unknown protease; also recorded: detects an unidentified protease

PFINETYAKFC (also: Affigel bead and HRP conjugate) [GV2]
HRP release signal (ABTS, 405 nm) (E. coli): small amount of signal | color change (HRP release, ABTS, 405 nm) with other common pathogens [2]: not in the presence of other common pathogens | HRP release / color change with H2O2 and ABTS substrate (Gardnerella vaginalis): quite specific for G. vaginalis; also recorded: turns blue; also recorded: detects unidentified protease from G. vaginalis | HRP release / color change with H2O2 and ABTS substrate (Gardnerella vaginalis; listed as PFINETYAKFC): color change was observed quickly

TPIQIHTILH (Peptide Substrate of Candida spp.) [G11]
identified as peptide target for C. albicans (C. albicans [3]): peptide targets for C. albicans | ability to detect C. albicans (C. albicans [4]): able to detect C. albicans; also recorded: able to detect Candida albicans

From patent publication US20070128589A1, “Substrates, sensors, and methods for assessing conditions in females” (priority 2005, published 2007)
